{
  "source": "paper PMC3564796",
  "about": "“Reversal of MRP7 (ABCC10)-Mediated Multidrug Resistance by Tariquidar” (PLoS ONE, 2013)",
  "key": {"MRP7 (ABCC10) [1]": {"molecular_target": "T1, MRP7 (ABCC10) (Homo sapiens, UniProt Q5T3U5)", "T1 construct": "MRP7 expression vector stably transfected into HEK293 cells (HEK/MRP7); empty-vector HEK/pcDNA as control", "T1 sequence (Q5T3U5 1-1492)": "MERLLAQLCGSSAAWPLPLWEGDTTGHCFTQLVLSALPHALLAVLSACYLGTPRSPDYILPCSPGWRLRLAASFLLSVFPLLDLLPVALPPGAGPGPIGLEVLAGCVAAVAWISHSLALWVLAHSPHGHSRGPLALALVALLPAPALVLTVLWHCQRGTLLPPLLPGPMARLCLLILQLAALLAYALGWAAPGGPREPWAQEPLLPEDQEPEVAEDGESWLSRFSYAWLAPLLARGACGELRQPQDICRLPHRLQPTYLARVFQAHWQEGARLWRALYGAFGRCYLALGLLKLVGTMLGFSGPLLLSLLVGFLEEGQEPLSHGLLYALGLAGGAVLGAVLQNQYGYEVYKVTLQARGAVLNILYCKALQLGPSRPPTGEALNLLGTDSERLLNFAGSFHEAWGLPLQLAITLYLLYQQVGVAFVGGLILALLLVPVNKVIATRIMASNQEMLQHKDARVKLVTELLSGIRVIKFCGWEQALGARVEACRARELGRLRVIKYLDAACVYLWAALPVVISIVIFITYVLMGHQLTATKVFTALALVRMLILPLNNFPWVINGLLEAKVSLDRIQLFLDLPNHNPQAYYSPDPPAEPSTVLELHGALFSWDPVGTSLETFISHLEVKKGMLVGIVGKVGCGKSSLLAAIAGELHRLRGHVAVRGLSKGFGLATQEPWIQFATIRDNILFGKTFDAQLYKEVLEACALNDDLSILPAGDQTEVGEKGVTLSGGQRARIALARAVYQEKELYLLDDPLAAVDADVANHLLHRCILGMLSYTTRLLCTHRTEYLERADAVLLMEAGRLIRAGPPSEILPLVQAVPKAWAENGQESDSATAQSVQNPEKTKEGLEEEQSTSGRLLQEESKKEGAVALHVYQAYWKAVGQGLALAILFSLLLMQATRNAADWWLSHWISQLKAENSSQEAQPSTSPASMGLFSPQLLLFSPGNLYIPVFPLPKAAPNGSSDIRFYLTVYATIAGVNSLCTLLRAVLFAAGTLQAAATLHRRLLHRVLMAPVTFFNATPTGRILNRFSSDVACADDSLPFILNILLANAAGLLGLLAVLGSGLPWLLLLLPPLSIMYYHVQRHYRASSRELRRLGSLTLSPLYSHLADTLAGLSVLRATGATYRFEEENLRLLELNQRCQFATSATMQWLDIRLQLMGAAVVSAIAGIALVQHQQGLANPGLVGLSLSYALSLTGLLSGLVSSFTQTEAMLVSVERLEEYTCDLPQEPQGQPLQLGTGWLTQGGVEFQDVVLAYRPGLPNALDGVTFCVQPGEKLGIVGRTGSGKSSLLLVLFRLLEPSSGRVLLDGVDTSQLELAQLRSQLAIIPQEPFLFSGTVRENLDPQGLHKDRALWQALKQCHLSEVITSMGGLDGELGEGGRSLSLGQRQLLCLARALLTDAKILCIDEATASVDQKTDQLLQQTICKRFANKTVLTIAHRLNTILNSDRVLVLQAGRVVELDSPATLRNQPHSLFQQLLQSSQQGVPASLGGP", "experiment": "[3H]-paclitaxel accumulation in HEK/MRP7 cells", "assay_type": "cell-based", "details": "4 h treatment; 0.01 µM [3H]-paclitaxel (methods; Figure 5 legend prints 0.1 µM); 37°C; inhibitor of efflux"}, "MRP7 (ABCC10) [2]": {"molecular_target": "T1, MRP7 (ABCC10)", "experiment": "cellular efflux time course, HEK/MRP7 versus HEK/pcDNA", "assay_type": "cell-based", "details": "labelled compound (3H); 0.01 µM; 37°C; 0-120 min"}},
  "data": [
    {"smiles": "COc1cc2c(cc1OC)CN(CCc1ccc(NC(=O)c3cc(OC)c(OC)cc3NC(=O)c3cnc4ccccc4c3)cc1)CC2", "note": "[Tariquidar]", "values": [
      {"measurement": "fold [3H]-paclitaxel accumulation at 0.3 μM", "setting": "MRP7 (ABCC10) [1]", "result": 1.8, "unit": "fold"}
    ]},
    {"smiles": "CC(=O)O[C@H]1C(=O)[C@@]2(C)[C@H]([C@H](OC(=O)c3ccccc3)[C@]3(O)C[C@H](OC(=O)[C@H](O)[C@@H](NC(=O)c4ccccc4)c4ccccc4)C(C)=C1C3(C)C)[C@]1(OC(C)=O)CO[C@@H]1C[C@@H]2O", "note": "[[^3H]-paclitaxel]", "values": [
      {"measurement": "cellular efflux time course, HEK/MRP7 versus HEK/pcDNA", "setting": "MRP7 (ABCC10) [2]", "result": "HEK/MRP7 cells, but not the parental HEK/pcDNA cells, rapidly effluxed [^3H]-paclitaxel"}
    ]}
  ]
}
